Test results as given in the supplement of paper PMC10307832.

Experiments:
Test in all cases: relative viability (nuclei count vs DMSO), 5 days (fraction); higher = more cells survive
Shikonin + Pictilisib = compound: CC(C)=CC[C@@H](O)C1=CC(=O)c2c(O)ccc(O)c2C1=O [Shikonin] + CS(=O)(=O)N1CCN(Cc2cc3nc(-c4cccc5[nH]ncc45)nc(N4CCOCC4)c3s2)CC1 [Pictilisib] (partner 1 µM)
How it was run: (§1)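 Dosing by pin tool came one day after lung cancer cell lines were seeded in 1536-well plates, using either one drug or a fixed anchor-drug dose plus five library-drug doses (not always all listed) in √10 steps. After 5 days, nuclei were counted on 4× images. Relative viability is treated-well nuclei count divided by vehicle-well nuclei count, and values are medians of duplicate plates.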

[1] = compound: CC(C)N(CCCNC(=O)Nc1ccc(C(C)(C)C)cc1)C[C@H]1O[C@@H](n2ccc3c(N)ncnc32)[C@H](O)[C@@H]1O + Cc1nc(NC(=O)N2CCC[C@H]2C(N)=O)sc1-c1ccnc(C(C)(C)C(F)(F)F)c1 [Alpelisib] (partner 2 µM)
How it was run: as §1

Shikonin + Lapatinib = compound: CC(C)=CC[C@@H](O)C1=CC(=O)c2c(O)ccc(O)c2C1=O [Shikonin] + CS(=O)(=O)CCNCc1ccc(-c2ccc3ncnc(Nc4ccc(OCc5cccc(F)c5)c(Cl)c4)c3c2)o1 [Lapatinib] (partner 2 µM)
How it was run: as §1

[2] = compound: CC(C)N(CCCNC(=O)Nc1ccc(C(C)(C)C)cc1)C[C@H]1O[C@@H](n2ccc3c(N)ncnc32)[C@H](O)[C@@H]1O + CS(=O)(=O)CCNCc1ccc(-c2ccc3ncnc(Nc4ccc(OCc5cccc(F)c5)c(Cl)c4)c3c2)o1 [Lapatinib] (partner 2 µM)
How it was run: as §1

| Cell Line | relative viability (Shikonin + Pictilisib; first compound 0.01 µM) | relative viability (Shikonin + Pictilisib; first compound 0.1 µM) | relative viability (Shikonin + Pictilisib; first compound 0.3162 µM) | relative viability (Shikonin + Pictilisib; first compound 1 µM) | relative viability ([1]; first compound 0.08 µM) | relative viability ([1]; first compound 0.253 µM) | relative viability ([1]; first compound 0.8 µM) | relative viability ([1]; first compound 2.53 µM) | relative viability ([1]; first compound 8 µM) | relative viability (Shikonin + Lapatinib; first compound 0.01 µM) | relative viability (Shikonin + Lapatinib; first compound 0.1 µM) | relative viability (Shikonin + Lapatinib; first compound 0.3162 µM) | relative viability (Shikonin + Lapatinib; first compound 1 µM) | relative viability ([2]; first compound 0.08 µM) | relative viability ([2]; first compound 0.253 µM) | relative viability ([2]; first compound 0.8 µM) | relative viability ([2]; first compound 2.53 µM) | relative viability ([2]; first compound 8 µM) |
| --- | --- | --- | --- | --- | --- | --- | --- | --- | --- | --- | --- | --- | --- | --- | --- | --- | --- | --- |
| COR-L23 | 1.09 | 0.831 | 0.889 | 0.741 | 0.74 | 0.765 | 0.791 | 0.955 | 0.759 | 1.03 | 1.07 | 1.13 | 1.05 | 0.955 | 0.929 | 0.888 | 1.01 | 1.04 |
| ABC-1 | 0.718 | 0.776 | 0.538 | 0.407 | 0.989 | 1.2 |  | 1.12 | 1.07 | 1.5 | 1.28 | 1.27 | 1.2 | 1.31 | 0.936 | 0.847 | 1.13 | 1.12 |
| PC-3 [JPC-3] | 0.69 | 0.84 | 0.759 | 0.788 | 1.04 | 1 | 0.896 | 1 | 1.01 | 0.443 | 0.512 | 0.479 | 0.543 | 0.433 | 0.478 | 0.419 | 0.467 | 0.462 |
| A549 | 0.746 | 0.569 | 0.644 | 0.488 | 0.68 | 0.848 | 0.948 | 0.723 | 0.659 | 1.08 | 1.09 | 1.03 | 1.1 | 0.908 | 1.01 | 1.29 | 0.93 | 1.01 |
| A-427 | 0.691 | 0.915 | 0.643 | 0.765 | 1.08 | 1.03 | 1.11 | 1.1 | 1.18 | 1.05 | 1.37 | 0.967 | 1.14 | 1.01 | 0.99 | 1.05 | 1.04 | 1 |
| NCI-H1792 | 0.306 | 0.206 | 0.293 | 0.308 | 0.671 | 0.497 | 0.688 | 0.696 | 0.668 | 0.922 | 1.06 | 0.968 | 1.09 | 0.878 | 0.851 | 0.839 | 0.831 | 0.902 |
| LCLC-97TM1 | 0.172 | 0.143 | 0.266 | 0.169 | 0.251 |  | 0.267 | 0.174 | 0.222 | 1.28 | 0.998 | 1.09 | 0.921 | 0.906 |  | 1.41 | 0.517 | 1.11 |
| NCI-H1703 | 0.26 | 0.238 | 0.206 | 0.205 | 0.309 | 0.322 | 0.304 | 0.439 | 0.318 | 1.15 | 1.33 | 1.15 | 0.647 | 0.956 | 1.06 | 0.823 | 1.61 | 0.892 |
| LCLC-103H | 0.503 | 0.708 | 0.677 | 0.676 | 1.03 | 0.905 | 0.907 | 0.99 | 0.898 |  |  |  |  |  |  |  |  |  |
| SK-LU-1 | 0.511 | 0.541 | 0.442 | 0.616 | 1.22 | 1.15 | 1.28 | 1.16 | 1.01 | 1.07 | 0.869 | 0.724 | 0.786 | 0.892 | 0.887 | 0.989 | 1.13 | 0.748 |
| BEN | 0.642 | 0.596 | 0.682 | 0.612 | 0.909 | 0.93 | 0.953 | 0.913 | 0.989 | 0.654 | 0.897 | 0.776 | 0.768 | 0.71 | 0.67 | 0.71 | 0.628 | 0.625 |
| NCI-H1666 | 0.643 | 0.358 | 0.394 | 0.299 | 0.888 | 0.825 | 0.895 | 0.943 | 1.02 | 0.585 | 0.779 | 0.657 | 0.853 | 0.618 | 0.613 | 0.427 | 0.568 | 0.486 |
| LC-2-ad | 0.336 | 0.506 | 0.469 | 0.408 | 0.802 | 0.83 | 0.992 | 0.823 | 0.806 | 0.798 | 1.38 | 1.04 | 0.965 | 0.937 | 0.906 | 0.925 | 0.966 | 0.835 |
| ChaGo-K-1 | 0.677 | 1.16 | 0.699 | 1.27 |  |  |  |  |  |  |  |  |  |  |  |  |  |  |
| COR-L 105 | 0.428 | 0.358 | 0.438 | 0.336 | 0.733 | 1.08 | 1.06 | 1.02 | 0.974 | 0.339 | 0.346 | 0.318 | 0.36 | 0.365 | 0.317 | 0.417 | 0.403 | 0.355 |
| NCI-H1975 | 0.287 | 0.283 | 0.268 | 0.294 | 0.555 | 0.529 | 0.586 | 0.611 | 0.567 | 0.871 | 1.17 | 0.859 | 0.896 | 0.752 | 0.805 | 0.473 | 0.752 | 0.656 |
| Calu-6 | 1.15 | 1.03 | 0.921 | 0.756 | 0.987 | 1.01 | 1.02 | 1.09 | 0.984 | 1.16 | 1.34 | 1.11 | 1.16 | 1.05 | 1.09 | 1.09 | 1.12 | 1.09 |
| NCI-H2009 | 0.817 | 1.13 | 0.671 | 0.187 | 1.19 | 1.15 | 1.22 | 1.22 | 1.18 | 1.02 | 0.894 | 0.923 | 0.498 | 1.01 | 0.818 | 0.716 | 0.888 | 0.792 |
| SW 1573 | 0.616 | 0.604 | 0.558 | 0.532 | 0.771 | 0.708 | 0.734 | 0.949 | 0.667 | 1.07 | 1.18 | 1.14 | 1.19 | 1.05 | 1.09 | 1.09 | 1.05 | 1.16 |
| NCI-H441 | 0.621 | 0.436 | 0.485 | 0.437 |  | 0.653 | 0.88 | 0.677 | 0.712 |  |  |  |  |  |  |  |  |  |
